# From US7087762B2, “Long-lasting antimicrobial reaction product of allantoin and formaldehyde containing a low level of free formaldehyde” (ISP Investments Inc., priority 2002, dated 2006)
# Legend:
# [1] = test system: SA (Staphylococcus aureus); test: Preservative challenge test, screening emulsion; format: cell-based
# Protocol: (§1) A typical cosmetic emulsion was prepared for microbiological challenge testing and predetermined admixtures of a methylol compound and IPBC were added at various use levels. The emulsion thus prepared had the following composition:
# (§2) To prepare the emulsion, Phases A and B were heated separately to 75°–80° C. Phase A then was added to Phase B with mixing. The mixture then was cooled to 55°–60° C. At this point the desired amount of the preservative admixture was added and the product was cooled to 50° C. while stirring. The citric acid solution then was added to adjust the pH and the mixture was stirred until a temperature of 30° C. was reached.
# (§3) The challenge tests were carried out using the following microorganisms: SA, ECOLI, PSA, PC, AN and CAN, in this manner. 50 g aliquots of the test emulsion containing various amounts of the preservative admixture were inoculated with approximately 10^7–10^8 of the challenge organisms. The test samples then were stirred to disperse the challenge inoculum. The samples were incubated and assayed at 48 hours, 7, 14, 21 and 28 days. The assays were performed on 1 g of the test sample by serially diluting 10^1 to 10^6 of the original concentration. The plating medium for bacteria was Letheen agar and for fungi it was low pH Mycophil agar with Tween 20. Each plated sample was incubated for 48 hours at 37° C. for bacteria, 5 days at 25° C. for mold, and 3 days at 25° C. for fungi. After incubation, readings of the number of colonies per milliliter (cfu/ml) were made. At 21 days the test product was reinoculated with half of the original inoculum.
# [2] = test system: CAN (Candida albicans); test: Preservative challenge test, screening emulsion; format: cell-based
# Protocol: as §1, §2, §3
# [3] = test system: PSA (Pseudomonas aeruginosa); test: Preservative challenge test, screening emulsion; format: cell-based
# Protocol: as §1, §2, §3
# [4] = test system: EC (ECOLI, Escherichia coli); test: Preservative challenge test, screening emulsion; format: cell-based
# Protocol: as §1, §2, §3
# [5] = test system: EC (ECOLI, Escherichia coli); test: Preservative challenge test, nonionic emulsion; format: cell-based
# Protocol: as §1, §3
# [6] = test system: BC (B. cepacia); test: Preservative challenge test, screening emulsion; format: cell-based, Burkholderia cepacia
# Protocol: as §1, §2, §3
# [7] = test system: C. Albican ATTC1023; test: Activity against yeast and mold, 0.3% test solutions; format: cell-based, Candida albicans; set-up: key: + Growth; − No Growth
# Excerpt: (§4) Activity against yeast and mold:
# [8] = test system: A. Niger ATCC 9642; test: as above; format: cell-based, Aspergillus niger; set-up: key: + Growth; − No Growth
# Excerpt: as §4
smiles,measurement,setting,value
O=C1C(N(CO)C(=O)NCO)N(CO)C(=O)N1CO (stereo not shown) [Germall II],"cfu/ml, 48 hrs",[1]; 250 ppm,"55,000 cfu/ml"
same,"cfu/ml, 7 days",[1]; 250 ppm,<10 cfu/ml
same,"cfu/ml, 14 days",[1]; 250 ppm,<10 cfu/ml
same,"cfu/ml, 21 days",[1]; 250 ppm,<10 cfu/ml
same,"cfu/ml, 28 days",[1]; 250 ppm,<10 cfu/ml
same,"cfu/ml, 48 hrs",[1]; 500 ppm,"17,000 cfu/ml"
same,"cfu/ml, 7 days",[1]; 500 ppm,<10 cfu/ml
same,"cfu/ml, 14 days",[1]; 500 ppm,<10 cfu/ml
same,"cfu/ml, 21 days",[1]; 500 ppm,<10 cfu/ml
same,"cfu/ml, 28 days",[1]; 500 ppm,<10 cfu/ml
same,"cfu/ml, 48 hrs",[1]; 1000 ppm,<10 cfu/ml
same,"cfu/ml, 7 days",[1]; 1000 ppm,<10 cfu/ml
same,"cfu/ml, 14 days",[1]; 1000 ppm,<10 cfu/ml
same,"cfu/ml, 21 days",[1]; 1000 ppm,<10 cfu/ml
same,"cfu/ml, 28 days",[1]; 1000 ppm,<10 cfu/ml
same,"cfu/ml, 48 hrs",[1]; 2000 ppm,<10 cfu/ml
same,"cfu/ml, 7 days",[1]; 2000 ppm,<10 cfu/ml
same,"cfu/ml, 14 days",[1]; 2000 ppm,<10 cfu/ml
same,"cfu/ml, 21 days",[1]; 2000 ppm,<10 cfu/ml
same,"cfu/ml, 28 days",[1]; 2000 ppm,<10 cfu/ml
same,"cfu/ml, 48 hrs",[2]; 250 ppm,"290,000 cfu/ml"
same,"cfu/ml, 7 days",[2]; 250 ppm,"170,000 cfu/ml"
same,"cfu/ml, 14 days",[2]; 250 ppm,"71,000 cfu/ml"
same,"cfu/ml, 21 days",[2]; 250 ppm,"46,000 cfu/ml"
same,"cfu/ml, 28 days",[2]; 250 ppm,"680,000 cfu/ml"
same,"cfu/ml, 48 hrs",[2]; 500 ppm,"170,000 cfu/ml"
same,"cfu/ml, 7 days",[2]; 500 ppm,"100,000 cfu/ml"
same,"cfu/ml, 14 days",[2]; 500 ppm,"90,000 cfu/ml"
same,"cfu/ml, 21 days",[2]; 500 ppm,"320,000 cfu/ml"
same,"cfu/ml, 28 days",[2]; 500 ppm,"930,000 cfu/ml"
same,"cfu/ml, 48 hrs",[2]; 1000 ppm,"160,000 cfu/ml"
same,"cfu/ml, 7 days",[2]; 1000 ppm,"78,000 cfu/ml"
same,"cfu/ml, 14 days",[2]; 1000 ppm,"63,000 cfu/ml"
same,"cfu/ml, 21 days",[2]; 1000 ppm,"260,000 cfu/ml"
same,"cfu/ml, 28 days",[2]; 1000 ppm,"210,000 cfu/ml"
same,"cfu/ml, 48 hrs",[2]; 2000 ppm,150 cfu/ml
same,"cfu/ml, 7 days",[2]; 2000 ppm,"9,600 cfu/ml"
same,"cfu/ml, 14 days",[2]; 2000 ppm,"48,900 cfu/ml"
same,"cfu/ml, 21 days",[2]; 2000 ppm,"490,000 cfu/ml"
same,"cfu/ml, 28 days",[2]; 2000 ppm,"210,000 cfu/ml"
same,"cfu/ml, 48 hrs",[3]; 250 ppm,<10 cfu/ml
same,"cfu/ml, 7 days",[3]; 250 ppm,<10 cfu/ml
same,"cfu/ml, 14 days",[3]; 250 ppm,<10 cfu/ml
same,"cfu/ml, 21 days",[3]; 250 ppm,<10 cfu/ml
same,"cfu/ml, 28 days",[3]; 250 ppm,<10 cfu/ml
same,"cfu/ml, 48 hrs",[3]; 500 ppm,<10 cfu/ml
same,"cfu/ml, 7 days",[3]; 500 ppm,<10 cfu/ml
same,"cfu/ml, 14 days",[3]; 500 ppm,<10 cfu/ml
same,"cfu/ml, 21 days",[3]; 500 ppm,<10 cfu/ml
same,"cfu/ml, 28 days",[3]; 500 ppm,<10 cfu/ml
same,"cfu/ml, 48 hrs",[3]; 1000 ppm,<10 cfu/ml
same,"cfu/ml, 7 days",[3]; 1000 ppm,<10 cfu/ml
same,"cfu/ml, 14 days",[3]; 1000 ppm,<10 cfu/ml
same,"cfu/ml, 21 days",[3]; 1000 ppm,<10 cfu/ml
same,"cfu/ml, 28 days",[3]; 1000 ppm,<10 cfu/ml
same,"cfu/ml, 48 hrs",[3]; 2000 ppm,<10 cfu/ml
same,"cfu/ml, 7 days",[3]; 2000 ppm,<10 cfu/ml
same,"cfu/ml, 14 days",[3]; 2000 ppm,<10 cfu/ml
same,"cfu/ml, 21 days",[3]; 2000 ppm,<10 cfu/ml
same,"cfu/ml, 28 days",[3]; 2000 ppm,<10 cfu/ml
same,"cfu/ml, 48 hrs",[4]; 250 ppm,5500 cfu/ml
same,"cfu/ml, 7 days",[4]; 250 ppm,<10 cfu/ml
same,"cfu/ml, 14 days",[4]; 250 ppm,<10 cfu/ml
same,"cfu/ml, 21 days",[4]; 250 ppm,<10 cfu/ml
same,"cfu/ml, 28 days",[4]; 250 ppm,<10 cfu/ml
same,"cfu/ml, 48 hrs",[4]; 500 ppm,610 cfu/ml
same,"cfu/ml, 7 days",[4]; 500 ppm,<10 cfu/ml
same,"cfu/ml, 14 days",[4]; 500 ppm,<10 cfu/ml
same,"cfu/ml, 21 days",[4]; 500 ppm,<10 cfu/ml
same,"cfu/ml, 28 days",[4]; 500 ppm,<10 cfu/ml
same,"cfu/ml, 48 hrs",[4]; 1000 ppm,<10 cfu/ml
same,"cfu/ml, 7 days",[4]; 1000 ppm,<10 cfu/ml
same,"cfu/ml, 14 days",[4]; 1000 ppm,<10 cfu/ml
same,"cfu/ml, 21 days",[4]; 1000 ppm,<10 cfu/ml
same,"cfu/ml, 28 days",[4]; 1000 ppm,<10 cfu/ml
same,"cfu/ml, 48 hrs",[4]; 2000 ppm,<10 cfu/ml
same,"cfu/ml, 7 days",[4]; 2000 ppm,<10 cfu/ml
same,"cfu/ml, 14 days",[4]; 2000 ppm,<10 cfu/ml
same,"cfu/ml, 21 days",[4]; 2000 ppm,<10 cfu/ml
same,"cfu/ml, 28 days",[4]; 2000 ppm,<10 cfu/ml
same,"cfu/ml, 48 hrs",[5]; 2000 ppm,<10 cfu/ml
same,"cfu/ml, 7 days",[5]; 2000 ppm,<10 cfu/ml
same,"cfu/ml, 14 days",[5]; 2000 ppm,<10 cfu/ml
same,"cfu/ml, 21 days",[5]; 2000 ppm,<10 cfu/ml
same,"cfu/ml, 28 days",[5]; 2000 ppm,<10 cfu/ml
same,"cfu/ml, 48 hrs",[5]; 4000 ppm,<10 cfu/ml
same,"cfu/ml, 7 days",[5]; 4000 ppm,<10 cfu/ml
same,"cfu/ml, 14 days",[5]; 4000 ppm,<10 cfu/ml
same,"cfu/ml, 21 days",[5]; 4000 ppm,<10 cfu/ml
same,"cfu/ml, 28 days",[5]; 4000 ppm,<10 cfu/ml
same,"cfu/ml, 48 hrs",[6]; 250 ppm,<10 cfu/ml
same,"cfu/ml, 7 days",[6]; 250 ppm,<10 cfu/ml
same,"cfu/ml, 14 days",[6]; 250 ppm,<10 cfu/ml
same,"cfu/ml, 21 days",[6]; 250 ppm,<10 cfu/ml
same,"cfu/ml, 28 days",[6]; 250 ppm,<10 cfu/ml
same,"cfu/ml, 48 hrs",[6]; 500 ppm,<10 cfu/ml
same,"cfu/ml, 7 days",[6]; 500 ppm,<10 cfu/ml
same,"cfu/ml, 14 days",[6]; 500 ppm,<10 cfu/ml
same,"cfu/ml, 21 days",[6]; 500 ppm,<10 cfu/ml
same,"cfu/ml, 28 days",[6]; 500 ppm,<10 cfu/ml
same,"cfu/ml, 48 hrs",[6]; 1000 ppm,<10 cfu/ml
same,"cfu/ml, 7 days",[6]; 1000 ppm,<10 cfu/ml
same,"cfu/ml, 14 days",[6]; 1000 ppm,<10 cfu/ml
same,"cfu/ml, 21 days",[6]; 1000 ppm,<10 cfu/ml
same,"cfu/ml, 28 days",[6]; 1000 ppm,<10 cfu/ml
same,"cfu/ml, 48 hrs",[6]; 2000 ppm,<10 cfu/ml
same,"cfu/ml, 7 days",[6]; 2000 ppm,<10 cfu/ml
same,"cfu/ml, 14 days",[6]; 2000 ppm,<10 cfu/ml
same,"cfu/ml, 21 days",[6]; 2000 ppm,<10 cfu/ml
same,"cfu/ml, 28 days",[6]; 2000 ppm,<10 cfu/ml
same,"Growth, C. Albican ATTC1023",[7],−
same,"Growth, A. Niger ATCC 9642(for 3 Days)",[8],−
